Measured values reported in patent publication US20260297081A1, “COMPOUNDS AND METHODS OF TREATING CANCERS” (Cullgen Inc., priority 2023, published 2026).

Molecular target: CDK4 (Homo sapiens, UniProt P11802+Q16531)
Test: HiBiT detection of HiBiT-tagged CDK4 protein level in MCF7 cells, 16 hours (Table 8)
Type: cell-based
Set-up: expressed in transfected cells; host or cells: MCF7
Settings: MCF7 cells stably expressing HiBiT tagged target proteins; for activity at 0.01 µM: 10 nM, read-out: % CDK4 Relative Level (10 nM); for activity at 0.1 µM: 100 nM, read-out: % CDK4 Relative Level (100 nM)
Experimental: HiBiT detection system quantitatively measures total amounts of HiBiT-tagged proteins using a luminescent based method. MCF7 cells stably expressing HiBiT tagged target proteins were treated with heterobifunctional compounds at indicated concentrations for 16 hours, then lysed with Nano-Glo HiBiT Lytic detection reagents.

Sequence of CDK4 (P11802 whole entry): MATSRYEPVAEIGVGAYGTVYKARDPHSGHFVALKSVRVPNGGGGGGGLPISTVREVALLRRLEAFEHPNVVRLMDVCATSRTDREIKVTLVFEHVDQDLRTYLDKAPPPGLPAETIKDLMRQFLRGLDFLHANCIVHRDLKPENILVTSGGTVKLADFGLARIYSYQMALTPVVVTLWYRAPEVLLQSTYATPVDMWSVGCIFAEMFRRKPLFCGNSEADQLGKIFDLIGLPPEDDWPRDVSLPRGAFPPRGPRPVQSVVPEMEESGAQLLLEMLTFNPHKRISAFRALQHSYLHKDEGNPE
Sequence of CDK4 (P24385 whole entry partner): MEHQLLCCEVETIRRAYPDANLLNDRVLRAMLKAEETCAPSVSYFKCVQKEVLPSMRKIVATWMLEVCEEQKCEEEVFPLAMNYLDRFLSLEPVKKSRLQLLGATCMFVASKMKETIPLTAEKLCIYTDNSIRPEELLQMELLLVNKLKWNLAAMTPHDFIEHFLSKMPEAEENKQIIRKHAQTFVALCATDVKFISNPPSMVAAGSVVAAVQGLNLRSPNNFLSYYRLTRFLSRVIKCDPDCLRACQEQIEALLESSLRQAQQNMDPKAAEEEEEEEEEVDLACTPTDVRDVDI
Sequence of CDK4 (Q16531 2-1140 limits assumed): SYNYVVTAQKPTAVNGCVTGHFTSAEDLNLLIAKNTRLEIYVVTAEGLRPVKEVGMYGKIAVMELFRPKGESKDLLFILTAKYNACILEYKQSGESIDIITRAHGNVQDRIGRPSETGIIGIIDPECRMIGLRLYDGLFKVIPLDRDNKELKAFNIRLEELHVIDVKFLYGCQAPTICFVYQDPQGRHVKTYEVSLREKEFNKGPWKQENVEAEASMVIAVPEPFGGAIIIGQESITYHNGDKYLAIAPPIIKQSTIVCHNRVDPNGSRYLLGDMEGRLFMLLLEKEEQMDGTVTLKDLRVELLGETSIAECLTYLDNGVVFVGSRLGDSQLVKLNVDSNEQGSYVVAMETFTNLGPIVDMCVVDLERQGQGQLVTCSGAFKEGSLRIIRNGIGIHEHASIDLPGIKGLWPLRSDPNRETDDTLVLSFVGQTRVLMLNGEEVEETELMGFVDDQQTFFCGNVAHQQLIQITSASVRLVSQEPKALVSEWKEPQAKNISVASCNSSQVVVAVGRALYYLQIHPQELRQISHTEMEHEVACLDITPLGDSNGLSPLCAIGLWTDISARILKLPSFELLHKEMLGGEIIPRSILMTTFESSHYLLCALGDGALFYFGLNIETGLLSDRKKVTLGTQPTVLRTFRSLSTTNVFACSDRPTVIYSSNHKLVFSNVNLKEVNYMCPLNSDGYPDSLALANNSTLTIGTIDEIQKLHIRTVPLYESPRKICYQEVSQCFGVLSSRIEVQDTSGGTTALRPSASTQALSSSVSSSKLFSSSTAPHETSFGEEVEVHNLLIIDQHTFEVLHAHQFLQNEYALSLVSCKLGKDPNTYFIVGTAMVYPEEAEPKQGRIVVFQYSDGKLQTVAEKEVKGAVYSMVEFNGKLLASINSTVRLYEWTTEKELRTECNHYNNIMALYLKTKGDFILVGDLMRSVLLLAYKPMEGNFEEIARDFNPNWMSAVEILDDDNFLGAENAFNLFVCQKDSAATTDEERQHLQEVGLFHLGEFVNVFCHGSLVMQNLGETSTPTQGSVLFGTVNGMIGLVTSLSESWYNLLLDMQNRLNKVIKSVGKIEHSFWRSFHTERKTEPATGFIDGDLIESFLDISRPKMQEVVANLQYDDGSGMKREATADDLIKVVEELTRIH

| SMILES | activity at 0.01 µM [%] | activity at 0.1 µM [%] |
| --- | --- | --- |
| CNc1ccc(C(=O)Nc2ccc(N(C)C)nn2)c(NCCCCC(=O)N2CCN(c3ccc(Nc4ncc(F)c(-c5cc(F)c6nc(C)n(C(C)C)c6c5)n4)nc3)CC2)n1 [CPD-650, N-(6-(dimethylamino)pyridazin-3-yl)-2-((5-(4-(6-((5-fluoro-4-(4-fluoro-1-isopropyl-2-methyl-1H-benzo[d]imidazol-6-yl)pyrimidin-2-yl)amino)pyridin-3-yl)piperazin-1-yl)-5-oxopentyl)amino)-6-(methylamino)nicotinamide] | > 85 | > 85 |
| CNc1ccc(C(=O)Nc2ccc(N(C)C)nn2)c(NCCCCCC(=O)N2CCN(c3ccc(Nc4ncc(F)c(-c5cc(F)c6nc(C)n(C(C)C)c6c5)n4)nc3)CC2)n1 [CPD-651, N-(6-(dimethylamino)pyridazin-3-yl)-2-((6-(4-(6-((5-fluoro-4-(4-fluoro-1-isopropyl-2-methyl-1H-benzo[d]imidazol-6-yl)pyrimidin-2-yl)amino)pyridin-3-yl)piperazin-1-yl)-6-oxohexyl)amino)-6-(methylamino)nicotinamide] | > 85 | > 85 |
| CNc1ccc(C(=O)Nc2ccc(N(C)C)nn2)c(NCCCCCCC(=O)N2CCN(c3ccc(Nc4ncc(F)c(-c5cc(F)c6nc(C)n(C(C)C)c6c5)n4)nc3)CC2)n1 [CPD-652, N-(6-(dimethylamino)pyridazin-3-yl)-2-((7-(4-(6-((5-fluoro-4-(4-fluoro-1-isopropyl-2-methyl-1H-benzo[d]imidazol-6-yl)pyrimidin-2-yl)amino)pyridin-3-yl)piperazin-1-yl)-7-oxoheptyl)amino)-6-(methylamino)nicotinamide] | > 85 | > 85 |

Results, then the compound that gave them:

| activity at 0.01 µM [%] | activity at 0.1 µM [%] | SMILES |
| --- | --- | --- |
| > 85 | > 85 | CNc1ccc(C(=O)Nc2ccc(N(C)C)nn2)c(NCCOCCNC(=O)CN2CCN(c3ccc(Nc4ncc5cc6n(c5n4)C4(CCCCC4)CNC6=O)nc3)CC2)n1 [CPD-647, N-(6-(dimethylamino)pyridazin-3-yl)-6-(methylamino)-2-((2-(2-(2-(4-(6-((6′-oxo-7′,8′-dihydro-6′H-spiro[cyclohexane-1,9′-pyrazino[1′,2′:1,5]pyrrolo[2,3-d]pyrimidin]-2′-yl)amino)pyridin-3-yl)piperazin-1-yl)acetamido)ethoxy)ethyl)amino)nicotinamide] |
| > 85 | > 85 | CNc1ccc(C(=O)Nc2ccc(N(C)C)nn2)c(NCCC(=O)N2CCN(c3ccc(Nc4ncc(F)c(-c5cc(F)c6nc(C)n(C(C)C)c6c5)n4)nc3)CC2)n1 [CPD-648, N-(6-(dimethylamino)pyridazin-3-yl)-2-((3-(4-(6-((5-fluoro-4-(4-fluoro-1-isopropyl-2-methyl-1H-benzo[d]imidazol-6-yl)pyrimidin-2-yl)amino)pyridin-3-yl)piperazin-1-yl)-3-oxopropyl)amino)-6-(methylamino)nicotinamide] |
| > 85 | > 85 | CNc1ccc(C(=O)Nc2ccc(N(C)C)nn2)c(NCCCC(=O)N2CCN(c3ccc(Nc4ncc(F)c(-c5cc(F)c6nc(C)n(C(C)C)c6c5)n4)nc3)CC2)n1 [CPD-649, N-(6-(dimethylamino)pyridazin-3-yl)-2-((4-(4-(6-((5-fluoro-4-(4-fluoro-1-isopropyl-2-methyl-1H-benzo[d]imidazol-6-yl)pyrimidin-2-yl)amino)pyridin-3-yl)piperazin-1-yl)-4-oxobutyl)amino)-6-(methylamino)nicotinamide] |
| > 85 | > 85 | CNc1ccc(C(=O)Nc2ccc(N(C)C)nn2)c(NCCCCCCCC(=O)N2CCN(c3ccc(Nc4ncc(F)c(-c5cc(F)c6nc(C)n(C(C)C)c6c5)n4)nc3)CC2)n1 [CPD-653, N-(6-(dimethylamino)pyridazin-3-yl)-2-((8-(4-(6-((5-fluoro-4-(4-fluoro-1-isopropyl-2-methyl-1H-benzo[d]imidazol-6-yl)pyrimidin-2-yl)amino)pyridin-3-yl)piperazin-1-yl)-8-oxooctyl)amino)-6-(methylamino)nicotinamide] |
